# Experiment: xn = mol fraction of the nth substance listed
# Conditions: 101 kPa
structure (smiles),measurement,setting,value
CC[n+]1ccn(C)c1.N#C[S-] + CCO,speed of sound,"283.15 K, x1 = 0.0504",1281.9 m/s
same,viscosity,"283.15 K, x1 = 0.0504",1.93 mPa·s
same,speed of sound,"283.15 K, x1 = 0.1001",1345.1 m/s
same,viscosity,"283.15 K, x1 = 0.1001",2.34 mPa·s
same,speed of sound,"283.15 K, x1 = 0.2012",1466.4 m/s
same,viscosity,"283.15 K, x1 = 0.2012",3.49 mPa·s
same,speed of sound,"283.15 K, x1 = 0.3003",1560.9 m/s
same,viscosity,"283.15 K, x1 = 0.3003",4.8 mPa·s
same,speed of sound,"283.15 K, x1 = 0.3945",1641 m/s
same,viscosity,"283.15 K, x1 = 0.3945",6.72 mPa·s
same,speed of sound,"283.15 K, x1 = 0.5007",1711 m/s
same,viscosity,"283.15 K, x1 = 0.5007",9.41 mPa·s
same,speed of sound,"283.15 K, x1 = 0.6016",1768.2 m/s
same,viscosity,"283.15 K, x1 = 0.6016",12.82 mPa·s
same,speed of sound,"283.15 K, x1 = 0.7018",1805.7 m/s
same,viscosity,"283.15 K, x1 = 0.7018",16.95 mPa·s
same,speed of sound,"283.15 K, x1 = 0.951",1875.9 m/s
same,viscosity,"283.15 K, x1 = 0.951",34.19 mPa·s
same,speed of sound,"283.15 K, x1 = 1",1887.6 m/s
same,viscosity,"283.15 K, x1 = 1",38.41 mPa·s
same,speed of sound,"293.15 K, x1 = 0.0504",1249.4 m/s
same,viscosity,"293.15 K, x1 = 0.0504",1.58 mPa·s
same,speed of sound,"293.15 K, x1 = 0.1001",1314.4 m/s
same,viscosity,"293.15 K, x1 = 0.1001",1.91 mPa·s
same,speed of sound,"293.15 K, x1 = 0.2012",1438.1 m/s
same,viscosity,"293.15 K, x1 = 0.2012",2.88 mPa·s
same,speed of sound,"293.15 K, x1 = 0.3003",1534 m/s
same,viscosity,"293.15 K, x1 = 0.3003",3.84 mPa·s
same,speed of sound,"293.15 K, x1 = 0.3945",1614.9 m/s
same,viscosity,"293.15 K, x1 = 0.3945",5.3 mPa·s
same,speed of sound,"293.15 K, x1 = 0.5007",1685.5 m/s
same,viscosity,"293.15 K, x1 = 0.5007",7.24 mPa·s
same,speed of sound,"293.15 K, x1 = 0.6016",1743.3 m/s
same,viscosity,"293.15 K, x1 = 0.6016",9.63 mPa·s
same,speed of sound,"293.15 K, x1 = 0.7018",1781.1 m/s
same,viscosity,"293.15 K, x1 = 0.7018",12.52 mPa·s
same,speed of sound,"293.15 K, x1 = 0.8045",1813.9 m/s
same,viscosity,"293.15 K, x1 = 0.8045",16.42 mPa·s
same,speed of sound,"293.15 K, x1 = 0.951",1851.7 m/s
same,viscosity,"293.15 K, x1 = 0.951",23.87 mPa·s
same,speed of sound,"293.15 K, x1 = 1",1863.4 m/s
same,viscosity,"293.15 K, x1 = 1",26.31 mPa·s
same,speed of sound,"303.15 K, x1 = 0.1001",1284.3 m/s
same,viscosity,"303.15 K, x1 = 0.1001",1.59 mPa·s
same,speed of sound,"303.15 K, x1 = 0.3003",1507.4 m/s
same,viscosity,"303.15 K, x1 = 0.3003",3.14 mPa·s
same,speed of sound,"303.15 K, x1 = 0.3945",1589.2 m/s
same,viscosity,"303.15 K, x1 = 0.3945",4.29 mPa·s
same,speed of sound,"303.15 K, x1 = 0.5007",1660.4 m/s
same,viscosity,"303.15 K, x1 = 0.5007",5.73 mPa·s
same,speed of sound,"303.15 K, x1 = 0.6016",1718.9 m/s
same,viscosity,"303.15 K, x1 = 0.6016",7.51 mPa·s
same,speed of sound,"303.15 K, x1 = 0.7018",1757 m/s
same,viscosity,"303.15 K, x1 = 0.7018",9.54 mPa·s
same,speed of sound,"303.15 K, x1 = 0.8045",1790 m/s
same,viscosity,"303.15 K, x1 = 0.8045",12.35 mPa·s
same,speed of sound,"303.15 K, x1 = 0.8971",1813.9 m/s
same,viscosity,"303.15 K, x1 = 0.8971",15.08 mPa·s
same,speed of sound,"303.15 K, x1 = 1",1839.7 m/s
same,viscosity,"303.15 K, x1 = 1",19.03 mPa·s
same,speed of sound,"313.15 K, x1 = 0.1001",1254.6 m/s
same,viscosity,"313.15 K, x1 = 0.1001",1.34 mPa·s
same,speed of sound,"313.15 K, x1 = 0.2012",1382.8 m/s
same,viscosity,"313.15 K, x1 = 0.2012",1.93 mPa·s
same,speed of sound,"313.15 K, x1 = 0.3003",1481.3 m/s
same,viscosity,"313.15 K, x1 = 0.3003",2.63 mPa·s
same,speed of sound,"313.15 K, x1 = 0.3945",1563.9 m/s
same,viscosity,"313.15 K, x1 = 0.3945",3.56 mPa·s
same,speed of sound,"313.15 K, x1 = 0.5007",1635.8 m/s
same,viscosity,"313.15 K, x1 = 0.5007",4.67 mPa·s
same,speed of sound,"313.15 K, x1 = 0.8045",1766.5 m/s
same,viscosity,"313.15 K, x1 = 0.8045",9.58 mPa·s
same,speed of sound,"313.15 K, x1 = 0.951",1804.6 m/s
same,viscosity,"313.15 K, x1 = 0.951",13 mPa·s
same,speed of sound,"323.15 K, x1 = 0.0504",1155 m/s
same,viscosity,"323.15 K, x1 = 0.0504",0.94 mPa·s
same,speed of sound,"323.15 K, x1 = 0.1001",1225.4 m/s
same,viscosity,"323.15 K, x1 = 0.1001",1.14 mPa·s
same,speed of sound,"323.15 K, x1 = 0.2012",1355.8 m/s
same,viscosity,"323.15 K, x1 = 0.2012",1.64 mPa·s
same,speed of sound,"323.15 K, x1 = 0.3003",1455.6 m/s
same,viscosity,"323.15 K, x1 = 0.3003",2.24 mPa·s
same,speed of sound,"323.15 K, x1 = 0.3945",1539.2 m/s
same,viscosity,"323.15 K, x1 = 0.3945",3 mPa·s
same,speed of sound,"323.15 K, x1 = 0.5007",1611.5 m/s
same,viscosity,"323.15 K, x1 = 0.5007",3.91 mPa·s
same,speed of sound,"323.15 K, x1 = 0.6016",1671.5 m/s
same,viscosity,"323.15 K, x1 = 0.6016",4.97 mPa·s
same,speed of sound,"323.15 K, x1 = 0.8045",1743.5 m/s
same,viscosity,"323.15 K, x1 = 0.8045",7.66 mPa·s
same,speed of sound,"323.15 K, x1 = 0.8971",1767.8 m/s
same,viscosity,"323.15 K, x1 = 0.8971",9.05 mPa·s
same,speed of sound,"323.15 K, x1 = 1",1793.9 m/s
same,viscosity,"323.15 K, x1 = 1",11.1 mPa·s
CCO + CC[n+]1ccn(C)c1.N#C[S-],speed of sound,"283.15 K, x2 = 0",1194.7 m/s
same,viscosity,"283.15 K, x2 = 0",1.44 mPa·s
same,speed of sound,"313.15 K, x2 = 0",1092.2 m/s
same,viscosity,"313.15 K, x2 = 0",0.83 mPa·s
same,speed of sound,"323.15 K, x2 = 0",1059.1 m/s
same,viscosity,"323.15 K, x2 = 0",0.7 mPa·s
